Laboratory results taken from BigSolDB 2.1.

Nc1cccc(C(=O)O)c1O
solubility (mole fraction) (in ethanol, 293.2 K): 0.000186 | solubility (mole fraction) (in ethanol, 298.2 K): 0.000238 | solubility (mole fraction) (in ethanol, 303.2 K): 0.000285 | solubility (mole fraction) (in ethanol, 308.2 K): 0.000332 | solubility (mole fraction) (in ethanol, 313.2 K): 0.000386 | solubility (mole fraction) (in water, 293.2 K): 0.000113 | solubility (mole fraction) (in water, 298.2 K): 0.000126 | solubility (mole fraction) (in water, 303.2 K): 0.000141 | solubility (mole fraction) (in water, 308.2 K): 0.00016 | solubility (mole fraction) (in water, 313.2 K): 0.000178
